Experimental findings from US4652563A, “Vasodilators and β-adrenoceptor antagonists” (Smith Kline & French Laboratories Ltd., priority 1984, dated 1987) are described below.

Series [1] deals with T1, β1 -receptors (Felis catus, UniProt Q9TST6).
T1 construct: from tissue; host or cells: living anaesthetised cat (in vivo)
The experiment in a line: β-Adrenoceptor antagonist activity: inhibition of isoprenaline-induced tachycardia in ganglion blocked anaesthetised cats. As to conditions: prizidilol at doses giving a similar effect. In kind it is in vivo, cat.

The nature of series [2]: Vasodilator activity: increase in blood flow in autoperfused anaesthetised rat hindquarters. In kind it is in vivo. As to conditions: for ED (50% increase): Rattus norvegicus, read-out: dose required to increase hindquarters blood flow by 50%. From the text: The doses required to increase hindquarters blood flow by 50% were obtained.
Series [3] is described as follows: Anti-hypertensive activity: fall in blood pressure in anaesthetised rats, intravenous. In kind it is in vivo, rat. The note with it: from dose response graph; for ED (40 mm Hg): Rattus norvegicus, iv, read-out: dose required to lower blood pressure by 40 mm Hg. On the procedure:
(§1) Compounds were dosed following dissolution in distilled water or in polyethylene glycol and dilution with 0.9% saline. The compounds were then administered intravenously. The blood pressure and heart rate were monitored directly, from a polythene cannula placed in the carotid artery. The doses required to lower blood pressure by 40 mm Hg, when administered intravenously, were obtained from a dose response graph.

Series [4] addresses T1, β1 -receptors. The experiment in a line: β-Adrenoceptor antagonist activity: inhibition of isoprenaline-induced tachycardia in ganglion blocked anaesthetised cats. In kind it is in vivo, cat. As to conditions: for ED50: cat, iv, read-out: ID50 (inhibition of isoprenaline-induced tachycardia by 50%); for ED50 / ID50 (inhibition of isoprenaline-induced tachycardia by 50%): ganglion blocked anaesthetised cats, intravenous. From the text: (§2) The doses required to inhibit isoprenaline-induced tachycardia by 50% (ID50) were obtained after intravenous administration.

For series [5], the system named is β1 -adrenoceptor. Put plainly: Overall hypotension and β1-adrenoceptor antagonism from the above data. The note with it: in vivo. On the procedure: as §1, §2
(§3) Furthermore they have minimal intrinsic sympathomimetic activity as shown by the absence of a tachycardia in spontaneously beating guinea pig right atria. The compound of Example 1 produced a maximal increase of approximately 10% of the maximal isoprenaline induced tachycardia in an anaesthetised ganglion blocked cat.

The nature of series [6]: Anti-hypertensive activity in conscious cats, oral. In kind it is in vivo, cat. As to conditions: 19 μmol Kg^-1 (Example 1 base), 16 μmol Kg^-1 (Example 4 methanesulphonate); for changes in heart rate: at least 2 hours.
Series [7] in a line: Hypotension and aortic blood flow in anaesthetised cats. In kind it is in vivo, cat. As to conditions: 4 μmol Kg^-1 (base) and 7 μmol Kg^-1 (hydrochloride).
Series [8] in a line: Intrinsic sympathomimetic activity (tachycardia) in anaesthetised ganglion blocked cat. In kind it is in vivo.
From the text: as §3

A short description of series [9]: Blood pressure in conscious spontaneously hypertensive rats, intravenous and oral. In kind it is in vivo, spontaneously hypertensive rat.
Series [10] can be described thus: Observation of toxic effects in conscious spontaneously hypertensive rats, oral. As to conditions: doses up to a maximum of 102 μmol Kg^-1. In kind it is in vivo, spontaneously hypertensive rat.
Series [11] concerns isolated intact guinea pig trachea. Put plainly: Bronchodilatation: spontaneous tone of isolated intact guinea pig trachea. The note with it: bath concentration 1 μg ml^-1. On the procedure:
The compound of Example 4 (as methanesulphonate) (at a bath concentration of 1 μg ml^-1) caused a 50% reduction in the spontaneous tone of an isolated intact guinea pig trachea, as assessed by the method of Coleman R. A. and Farmer J. B. (1971), J. Pharm.

The mark [12] stands for this setting: administration intra-arterially.
[13] abbreviates: iv, administration intravenously.

Where a name gives a salt, the structure may show the parent alone. Read-outs that look alike come from different tables or passages of the source.

T1 sequence (Q9TST6 whole entry): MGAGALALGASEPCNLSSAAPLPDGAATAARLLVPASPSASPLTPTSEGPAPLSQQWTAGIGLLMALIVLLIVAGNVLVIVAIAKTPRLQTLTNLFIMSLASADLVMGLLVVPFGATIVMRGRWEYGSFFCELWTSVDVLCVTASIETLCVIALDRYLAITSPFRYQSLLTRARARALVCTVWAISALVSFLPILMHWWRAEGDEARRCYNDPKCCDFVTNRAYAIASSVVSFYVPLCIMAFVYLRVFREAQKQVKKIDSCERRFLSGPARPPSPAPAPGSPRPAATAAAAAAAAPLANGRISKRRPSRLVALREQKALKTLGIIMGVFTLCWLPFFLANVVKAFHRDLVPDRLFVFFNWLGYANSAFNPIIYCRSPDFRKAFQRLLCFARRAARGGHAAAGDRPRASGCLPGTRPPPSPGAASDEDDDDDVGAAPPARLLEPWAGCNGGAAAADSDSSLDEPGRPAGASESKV

Regarding `CC(C)(C)NCC(O)COc1ccccc1-c1ccc(NN)nn1` (centres unmarked) [Prizidilol, reference compound], the “duration of inhibition of isoprenaline-induced tachycardia” value in series [1] is recorded as “short duration of inhibition”. In addition, the ED (50% increase) in series [2] (setting [12]) was determined as 10 µmol/kg. Further, in [3], the ED (40 mm Hg) is 14 µmol/kg.
In the case of `Cc1cc(CCOCC2CC2)ccc1OCC(O)CNCCC(=O)Nc1ccc(C2=NNC(=O)CC2C)cc1` (centres unmarked) [Example 3, 6-[4-[3-[2-Hydroxy-3-[2-methyl-4-(2-(cyclopropylmethoxy)ethyl)phenoxy]propylamino]propionamido]phenyl]-5-methyl-4,5-dihydro-3(2H)-pyridazinone], the ED (50% increase) in series [2] (setting [13]) stood at 1.95 µmol/kg. Also, the ED (40 mm Hg) in series [3] was found to be 2.95 µmol/kg. Moreover, in series [4], the ED50 is 7.84 µmol/kg.
As to `CC1CC(=O)NN=C1c1ccc(NC(=O)CCNCC(O)COc2ccc(CCOCC3CC3)cc2)cc1` (centres unmarked) [Example 1 as hydrochloride, 6-[4-[3-[2-Hydroxy-3-[4-(2-(cyclopropylmethoxy)ethyl)phenoxy]propylamino]propionamido]phenyl]-5-methyl-4,5-dihydro-3(2H)-pyridazinone], the “dose required to increase hindquarters blood flow by 50%” value in [2] (administration intravenously, listed as 1, as hydrochloride) turned out to be 4.0 µmol/kg. Moreover, the “dose required to lower blood pressure by 40 mm Hg” value in series [3] (listed as 1, as hydrochloride) was determined as 4.0 µmol/kg. The “prolonged hypotension and β1-adrenoceptor antagonism over the same dose range” value in [5] was “cause prolonged hypotension and β1 -adrenoceptor antagonism over the same dose range”. Also, the “ID50 (inhibition of isoprenaline-induced tachycardia by 50%)” value in series [4] (listed as 1, as hydrochloride) amounted to 4.3 µmol/kg.
Take `CC1CC(=O)NN=C1c1ccc(NC(=O)CCNCC(O)COc2ccc(CCOCC3CC3)cc2)cc1` (centres unmarked) [Example 1, 6-[4-[3-[2-Hydroxy-3-[4-(2-(cyclopropylmethoxy)ethyl)phenoxy]propylamino]propionamido]phenyl]-5-methyl-4,5-dihydro-3(2H)-pyridazinone]: the “duration of inhibition of isoprenaline-induced tachycardia” value in series [1] was “prolonged duration of inhibition”. In addition, in series [6], the “period of blood pressure reduction with minimal heart rate change” value is recorded as “at least 2 hours”, the “reductions in blood pressure” value is recorded as “reductions in blood pressure” and the “changes in heart rate” value is given as “minimal changes in heart rate”. In addition, the “dose required to increase hindquarters blood flow by 50%” value in series [2] (administration intravenously, as base) came out at 11.5 µmol/kg. Moreover, in series [3] (as base), the “dose required to lower blood pressure by 40 mm Hg” value was 8.0 µmol/kg. In [5], the “prolonged hypotension and β1-adrenoceptor antagonism over the same dose range” value is “cause prolonged hypotension and β1 -adrenoceptor antagonism over the same dose range”. In [7], the “changes in aortic blood flow” value is listed as “minimal changes in aortic blood flow” and the hypotension entry is on record as “significant dose-dependent hypotension”. Also, the “maximal increase, of the maximal isoprenaline induced tachycardia” value in series [8] is “approximately 10%”. Also, the “ID50 (inhibition of isoprenaline-induced tachycardia by 50%)” value in series [4] (as base) turned out to be 1.9 µmol/kg. Also, the “selectivity for β1-receptors” value in [4] (in vivo) is listed as “evidence that this compound has selectivity for β1 -receptors”.
As for `CC1CC(=O)NN=C1c1ccc(NC(=O)CCNC[C@H](O)COc2ccc(CCOCC3CC3)cc2)cc1` (single isomer, unassigned; (-)) [Example 11, (-)-6-[4-[3-[2-(-)-Hydroxy-3-[4-(2-(cyclopropylmethoxy)ethyl)phenoxy]propylamino]propionamido]phenyl]-5-methyl-4,5-dihydro-3(2H)-pyridazione[(-) (-)isomer]], the ED (50% increase) in series [2] (setting [12]) was 1.1 µmol/kg. Moreover, the ED (40 mm Hg) in series [3] came to 2.1 µmol/kg. Also, the “prolonged hypotension and β1-adrenoceptor antagonism over the same dose range” value in series [5] is “cause prolonged hypotension and β1 -adrenoceptor antagonism over the same dose range”. Besides, the ED50 in [4] was determined as 1.6 µmol/kg.
Turning to `CCCc1cc(CCOCC2CC2)ccc1OCC(O)CNCCC(=O)Nc1ccc(C2=NNC(=O)CC2C)cc1` (centres unmarked) [Example 2, 6-[4-[3-[2-Hydroxy-3-[2-n-propyl-4-(2-(cyclopropylmethoxy)ethyl)phenoxy]propylamino]propionamido]phenyl]-5-methyl-4,5-dihydro-3(2H)-pyridazinone], the ED (50% increase) in series [2] (setting [13]) worked out at 1.43 µmol/kg. In addition, the ED (40 mm Hg) in [3] was found to be 3.15 µmol/kg. Further, in series [4], the ED50 amounted to 8.63 µmol/kg.
Regarding `CC1CC(=O)NN=C1c1ccc(NC(=O)CCNCC(O)COc2ccc(CCOCC3CC3)cc2)cc1` (centres unmarked) [Example 4, 6-[4-[3-[2-Hydroxy-3-[4-(2-(cyclopropylmethoxy)ethyl)phenoxy]propylamino]propionamido]phenyl]-5-methyl-4,5-dihydro-3(2H)-pyridazinone], in series [6], the “period of blood pressure reduction with minimal heart rate change” value was “at least 2 hours”, the “reductions in blood pressure” value is on record as “reductions in blood pressure” and the “changes in heart rate” value is “minimal changes in heart rate”. Further, the ED (50% increase) in [2] (setting [12]) worked out at 1.7 µmol/kg. Moreover, the duration of vasodilatation result in [2] (autoperfused anaesthetised rat hindquarters) is given as “prolonged duration of vasodilatation”. The “dose required to lower blood pressure by 40 mm Hg” value in [3] (as methanesulphonate) was determined as 2.8 µmol/kg. Moreover, the “prolonged hypotension and β1-adrenoceptor antagonism over the same dose range” value in series [5] was “cause prolonged hypotension and β1 -adrenoceptor antagonism over the same dose range”. Also, the “duration of prolonged, significant reductions in blood pressure (up to and including, post dose)” value in series [9] (intravenous, 3 to 13 μmol Kg^-1) was determined as 5 h. Moreover, the “fall in blood pressure” value in series [9] (intravenous, three dose levels from 3 to 13 μmol Kg^-1) is “significant fails in blood pressure”. Besides, the “duration of prolonged, significant reductions in blood pressure (up to and including, post dose)” value in [9] (oral, 25 to 102 μmol Kg^-1) was determined as 5 h. Moreover, the hypotensive effect entry in [9] (oral, three doses from 25 to 102 μmol Kg^-1) is reported as “significant hypotensive effect”. In addition, the toxic effects entry in series [10] is “no toxic effects were observed”. Besides, in series [11], the “inhibition of the reduction in tracheal tone by propanolol” value is on record as “not inhibited by propanolol” and the “reduction in spontaneous tone of trachea” value was found to be 50%. The “ID50 (inhibition of isoprenaline-induced tachycardia by 50%)” value in [4] (as methanesulphonate) amounted to 1.4 µmol/kg.
